For this assay, the target named is T1, full-length ATR (Homo sapiens, UniProt Q13535).
T1 construct: in the presence of 5 nM full-length ATR
T1 sequence (Q13535 whole entry): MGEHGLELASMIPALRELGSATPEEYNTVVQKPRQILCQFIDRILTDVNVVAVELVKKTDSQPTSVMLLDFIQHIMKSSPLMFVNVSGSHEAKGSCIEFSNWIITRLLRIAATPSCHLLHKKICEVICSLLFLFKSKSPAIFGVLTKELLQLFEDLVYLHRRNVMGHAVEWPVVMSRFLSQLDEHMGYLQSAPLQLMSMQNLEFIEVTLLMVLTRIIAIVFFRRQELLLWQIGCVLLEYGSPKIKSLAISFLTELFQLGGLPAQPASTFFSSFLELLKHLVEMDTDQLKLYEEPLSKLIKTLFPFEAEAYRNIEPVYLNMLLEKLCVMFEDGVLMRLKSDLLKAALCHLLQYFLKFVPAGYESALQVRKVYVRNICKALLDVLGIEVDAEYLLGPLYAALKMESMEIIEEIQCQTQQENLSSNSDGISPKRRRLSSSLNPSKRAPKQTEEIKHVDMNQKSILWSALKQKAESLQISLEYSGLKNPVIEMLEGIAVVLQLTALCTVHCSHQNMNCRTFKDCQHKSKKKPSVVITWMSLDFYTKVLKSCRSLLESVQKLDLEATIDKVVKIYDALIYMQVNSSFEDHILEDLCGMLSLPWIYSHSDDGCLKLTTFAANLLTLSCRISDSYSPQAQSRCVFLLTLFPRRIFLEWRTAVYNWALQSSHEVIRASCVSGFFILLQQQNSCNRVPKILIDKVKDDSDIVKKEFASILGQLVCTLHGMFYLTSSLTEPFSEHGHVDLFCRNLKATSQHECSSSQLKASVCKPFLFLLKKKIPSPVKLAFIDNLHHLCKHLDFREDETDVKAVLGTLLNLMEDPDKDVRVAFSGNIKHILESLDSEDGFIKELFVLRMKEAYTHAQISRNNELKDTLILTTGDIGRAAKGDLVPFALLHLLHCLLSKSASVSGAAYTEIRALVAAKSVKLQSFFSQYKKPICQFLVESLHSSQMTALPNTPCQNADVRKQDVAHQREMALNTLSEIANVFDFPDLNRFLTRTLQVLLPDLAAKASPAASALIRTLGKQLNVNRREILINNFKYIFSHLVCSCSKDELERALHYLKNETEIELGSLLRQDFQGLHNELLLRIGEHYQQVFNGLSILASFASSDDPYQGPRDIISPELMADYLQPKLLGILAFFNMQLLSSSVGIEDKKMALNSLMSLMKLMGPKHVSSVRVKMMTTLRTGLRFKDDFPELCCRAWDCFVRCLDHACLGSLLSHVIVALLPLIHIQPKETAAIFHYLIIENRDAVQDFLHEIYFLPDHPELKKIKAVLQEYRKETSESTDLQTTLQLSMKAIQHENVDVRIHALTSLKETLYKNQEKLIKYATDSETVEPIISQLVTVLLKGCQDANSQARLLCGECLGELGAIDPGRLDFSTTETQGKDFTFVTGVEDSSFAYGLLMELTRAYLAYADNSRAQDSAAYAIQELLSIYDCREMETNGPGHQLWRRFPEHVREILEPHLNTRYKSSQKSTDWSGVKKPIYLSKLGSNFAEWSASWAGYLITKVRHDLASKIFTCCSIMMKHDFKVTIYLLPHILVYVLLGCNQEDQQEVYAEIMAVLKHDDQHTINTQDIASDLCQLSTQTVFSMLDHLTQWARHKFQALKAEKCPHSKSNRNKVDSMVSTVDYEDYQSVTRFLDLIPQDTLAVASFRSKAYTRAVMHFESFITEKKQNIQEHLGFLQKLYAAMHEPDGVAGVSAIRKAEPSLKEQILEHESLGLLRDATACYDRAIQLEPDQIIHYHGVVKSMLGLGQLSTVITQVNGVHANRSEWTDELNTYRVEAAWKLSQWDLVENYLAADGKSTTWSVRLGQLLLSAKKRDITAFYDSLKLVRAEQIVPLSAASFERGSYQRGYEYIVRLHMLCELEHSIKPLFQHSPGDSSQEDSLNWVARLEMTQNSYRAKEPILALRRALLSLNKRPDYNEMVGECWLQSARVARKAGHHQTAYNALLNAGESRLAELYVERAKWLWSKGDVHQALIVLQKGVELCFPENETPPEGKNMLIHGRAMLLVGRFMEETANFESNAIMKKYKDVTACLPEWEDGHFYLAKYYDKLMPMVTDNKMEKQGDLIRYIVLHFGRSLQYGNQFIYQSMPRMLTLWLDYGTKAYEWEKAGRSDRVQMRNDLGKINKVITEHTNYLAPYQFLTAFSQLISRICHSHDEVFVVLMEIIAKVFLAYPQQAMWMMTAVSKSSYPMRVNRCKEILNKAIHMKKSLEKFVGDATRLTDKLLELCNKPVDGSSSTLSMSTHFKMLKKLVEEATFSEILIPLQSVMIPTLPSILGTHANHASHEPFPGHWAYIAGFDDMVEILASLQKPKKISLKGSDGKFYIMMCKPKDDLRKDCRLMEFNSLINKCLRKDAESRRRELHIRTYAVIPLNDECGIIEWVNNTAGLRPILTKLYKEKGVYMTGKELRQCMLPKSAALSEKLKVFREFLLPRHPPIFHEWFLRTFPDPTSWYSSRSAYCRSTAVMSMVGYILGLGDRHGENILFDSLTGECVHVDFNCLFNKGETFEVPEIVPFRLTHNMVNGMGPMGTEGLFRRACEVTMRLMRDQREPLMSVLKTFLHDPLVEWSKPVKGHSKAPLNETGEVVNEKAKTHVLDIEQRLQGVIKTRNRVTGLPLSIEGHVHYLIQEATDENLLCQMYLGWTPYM
The assay can be described thus: ATR Inhibition Assay (radioactive-phosphate incorporation). Type of assay: biochemical. As to conditions: Ki(app); 5 nM full-length ATR, 10 μM ATP, 800 μM target peptide, 25° C. On the procedure:
Test compounds were screened for their ability to inhibit ATR kinase using a radioactive-phosphate incorporation assay. Assays were carried out in a mixture of 50 mM
Tris/HCl (pH 7.5), 10 mM MgCl2 and 1 mM DTT. Final substrate concentrations were 10 μM [γ-33P]ATP (3 mCi 33 P ATP/mmol ATP, Perkin Elmer) and 800 μM target peptide ([…]). Assays were carried out at 25° C. in the presence of 5 nM full-length ATR. An assay stock buffer solution was prepared containing all of the reagents listed above, with the exception of ATP and the test compound of interest. […] The plate was pre-incubated for 10 minutes at 25° C. and the reaction initiated by addition of 15 μL [γ-33P]ATP (final concentration 10 μM).
The reaction was stopped after […] by the addition of 30 μL 0.1M phosphoric acid containing 2 mM ATP. A multiscreen phosphocellulose filter 96-well plate (Millipore, Cat no. MAPHN0B50) was pretreated with 100 μL 0.2M phosphoric acid prior to the addition of 45 μL of the stopped assay mixture. The plate was washed with 5×200 μL 0.2M phosphoric acid.
After removing mean background values for all of the data points, Ki(app) data were calculated from non-linear regression analysis of the initial rate data using the Prism software package (GraphPad Prism version 3.0cx for Macintosh, GraphPad Software, San Diego Calif., USA).
On to `CN(C)CC(=O)N1CC=C(c2cnc(N)c(-c3nc4ccccc4[nH]3)n2)CC1` [Compound I-186, 1-(4-(5-amino-6-(1H-benzo[d]imidazol-2-yl)pyrazin-2-yl)-5,6-dihydropyridin-1(2H)-yl)-2-(dimethylamino)ethanone], for which the Ki was in the range of 0.1 to 1 µM.

As for `NCCCS(=O)(=O)N1CC=C(c2cnc(N)c(-c3nc4ccccc4[nH]3)n2)CC1` [Compound I-331, 5-(1-(3-aminopropylsulfonyl)-1,2,3,6-tetrahydropyridin-4-yl)-3-(1H-benzo[d]imidazol-2-yl)pyrazin-2-amine], the Ki is less than 0.1 µM.

For `CC#CCOC(=O)N1CC=C(c2cnc(N)c(-c3nc4ccccc4[nH]3)n2)CC1` [Compound I-254, but-2-ynyl 4-(5-amino-6-(1H-benzo[d]imidazol-2-yl)pyrazin-2-yl)-5,6-dihydropyridine-1(2H)-carboxylate], the Ki was in the range of 0.1 to 1 µM.

Regarding `CN(C)CC(=O)N[C@H]1CCN(c2cnc(N)c(-c3nc4ccccc4[nH]3)n2)C1` [Compound I-184, (S)-N-(1-(5-amino-6-(1H-benzo[d]imidazol-2-yl)pyrazin-2-yl)pyrrolidin-3-yl)-2-(dimethylamino)ethanamide], the Ki lay in the range of 1 to 10 µM.

Take `CCS(=O)(=O)N1CC=C(c2cnc(N)c(-c3nc4c(F)cccc4[nH]3)n2)CC1` [Compound I-155, 5-(1-(ethylsulfonyl)-1,2,3,6-tetrahydropyridin-4-yl)-3-(4-fluoro-1H-benzo[d]imidazol-2-yl)pyrazin-2-amine]: the Ki is less than 0.1 µM.

With `Nc1ncc(N2CCN(C(=O)c3ccccn3)CC2)nc1-c1nnc(-c2ccccc2)o1` [Compound I-187, (4-(5-amino-6-(5-phenyl-1,3,4-oxadiazol-2-yl)pyrazin-2-yl)piperazin-1-yl)(pyridin-2-yl)methanone], the Ki lay within 0.1 to 1 µM.

For the compound `CNCCC(=O)N1CC=C(c2cnc(N)c(-c3nc4ccccc4[nH]3)n2)CC1` [Compound I-346, 1-(4-(5-Amino-6-(1H-benzo[d]imidazol-2-yl)pyrazin-2-yl)-5,6-dihydropyridin-1(2H)-yl)-3-(methylamino)propan-1-one], the Ki fell in the range of 0.1 to 1 µM.

As for `CN(C)S(=O)(=O)N1CC=C(c2cnc(N)c(-c3nc4ccccc4[nH]3)n2)CC1` [Compound I-89, 4-(5-amino-6-(1H-benzo[d]imidazol-2-yl)pyrazin-2-yl)-N,N-dimethyl-5,6-dihydropyridine-1(2H)-sulfonamide], the Ki was less than 0.1 µM.

As to `Nc1ncc(C2=CCN(S(=O)(=O)c3ccccc3)CC2)nc1-c1nc2ccccc2[nH]1` [Compound I-210, 3-(1H-benzo[d]imidazol-2-yl)-5-(1-(phenylsulfonyl)-1,2,3,6-tetrahydropyridin-4-yl)pyrazin-2-amine], the Ki was less than 0.1 µM.

Take `Nc1ncc(N2CCN(C(=O)N3CCOCC3)CC2)nc1-c1nnc(-c2ccccc2)o1` [Compound I-216, (4-(5-amino-6-(5-phenyl-1,3,4-oxadiazol-2-yl)pyrazin-2-yl)piperazin-1-yl)(morpholino)methanone]: the Ki fell in the range of 0.1 to 1 µM.

On to `CCC(=O)N1CCN(c2cnc(N)c(-c3nnc(-c4ccc(CNC)cc4)o3)n2)[C@H](C)C1` [Compound I-359, (R)-1-(4-(5-Amino-6-(5-(4-((methylamino)methyl)phenyl)-1,3,4-oxadiazol-2-yl)pyrazin-2-yl)-3-methylpiperazin-1-yl)propan-1-one], for which the Ki was 0.1 to 1 µM.

As for `Nc1ncc(-n2ccc(=O)cc2)nc1-c1nnc(-c2ccccc2)o1` [Compound I-286, 1-[5-amino-6-(5-phenyl-1,3,4-oxadiazol-2-yl)pyrazin-2-yl]pyridin-4-one], the Ki is less than 0.1 µM.

As for `CC(C)C(=O)N1CCN(c2cnc(N)c(-c3nc4ccccc4[nH]3)n2)CC1` [Compound I-199, 1-(4-(5-amino-6-(1H-benzo[d]imidazol-2-yl)pyrazin-2-yl)piperazin-1-yl)-2-methylpropan-1-one], the Ki is 1 to 10 µM.

On to `CCC(=O)NC1[C@H]2CN(c3cnc(N)c(-c4nnc(-c5ccc(CNC)cc5)o4)n3)C[C@@H]12` (stereo partly drawn) [Compound I-358, N-[(1S,5R)-3-[5-amino-6-[5-[4-(methylaminomethyl)phenyl]-1,3,4-oxadiazol-2-yl]pyrazin-2-yl]-3-azabicyclo[3.1.0]hexan-6-yl]propanamide], for which the Ki fell in the range of 0.1 to 1 µM.

Take `COC(=O)N1CCN(c2cnc(N)c(C(=O)Nc3ccccn3)n2)CC1` [Compound I-242, methyl 4-(5-amino-6-(pyridin-2-ylcarbamoyl)pyrazin-2-yl)piperazine-1-carboxylate]: the Ki lay in the range of 1 to 10 µM.

Regarding `CCS(=O)(=O)N1CC=C(c2cnc(N)c(-c3nc4cc(C)ccc4[nH]3)n2)CC1` [Compound I-157, 5-(1-(ethylsulfonyl)-1,2,3,6-tetrahydropyridin-4-yl)-3-(5-methyl-1H-benzo[d]imidazol-2-yl)pyrazin-2-amine], the Ki was less than 0.1 µM.

As for `Nc1ncc(N2CCN(C(=O)C3CCC3)CC2)nc1C(=O)Nc1ccccn1` [Compound I-145, 3-amino-6-(4-(cyclobutanecarbonyl)piperazin-1-yl)-N-(pyridin-2-yl)pyrazine-2-carboxamide], the Ki lay in the range of 0.1 to 1 µM.

`CCS(=O)(=O)N1CCN(c2cnc(N)c(-c3nnc(-c4sccc4C)o3)n2)CC1` [Compound I-294, 5-(4-ethylsulfonylpiperazin-1-yl)-3-[5-(3-methyl-2-thienyl)-1,3,4-oxadiazol-2-yl]pyrazin-2-amine]: the Ki is less than 0.1 µM.

For `CCC(=O)NC1CC[C@H]2CN(c3cnc(N)c(-c4nnc(-c5ccc(CNC)cc5)o4)n3)C[C@@H]12` (stereo partly drawn) [Compound I-355, N-((3aS,6aR)-2-(5-Amino-6-(5-(4-((methylamino)methyl)phenyl)-1,3,4-oxadiazol-2-yl)pyrazin-2-yl)octahydrocyclopenta[c]pyrrol-4-yl)propionamide], the Ki is 0.1 to 1 µM.

In the case of `Nc1ncc(N2CCN(C(=O)c3cccnc3)CC2)nc1C(=O)Nc1ccccn1` [Compound I-146, 3-amino-N-(pyridin-2-yl)-6-(4-(pyridine-3-carbonyl)piperazin-1-yl)pyrazine-2-carboxamide], the Ki is 1 to 10 µM.

`Nc1ncc(N2CCCC2=O)nc1-c1nc2ccccc2[nH]1` [Compound I-75, 1-(5-amino-6-(1H-benzo[d]imidazol-2-yl)pyrazin-2-yl)pyrrolidin-2-one]: the Ki was in the range of 1 to 10 µM.

In the case of `COCCOC(=O)N1CC=C(c2cnc(N)c(-c3nnc(-c4ccccc4)o3)n2)CC1` [Compound I-224, 2-methoxyethyl 4-(5-amino-6-(5-phenyl-1,3,4-oxadiazol-2-yl)pyrazin-2-yl)-5,6-dihydropyridine-1(2H)-carboxylate], the Ki is less than 0.1 µM.

Take `CCC(=O)N1CC=C(c2cnc(N)c(-c3nnc(-c4ccccc4)o3)n2)CC1` [Compound I-301, 1-[4-[5-amino-6-(5-phenyl-1,3,4-oxadiazol-2-yl)pyrazin-2-yl]-3,6-dihydro-2H-pyridin-1-yl]propan-1-one]: the Ki was less than 0.1 µM.

Take `Cc1ccc2nc(-c3nc(N4CCC(O)CC4)cnc3N)[nH]c2c1` [Compound I-5, 1-(5-amino-6-(6-methyl-1H-benzo[d]imidazol-2-yl)pyrazin-2-yl)piperidin-4-ol]: the Ki is 1 to 10 µM.

Consider `CC#CCOC(=O)N1CCN(c2cnc(N)c(C(=O)Nc3ccccn3)n2)CC1` [Compound I-252, but-2-ynyl 4-(5-amino-6-(pyridin-2-ylcarbamoyl)pyrazin-2-yl)piperazine-1-carboxylate], for which the Ki fell in the range of 1 to 10 µM.

As for `Nc1ncc(C2=CCN(C(=O)c3cccnc3)CC2)nc1-c1nnc(-c2ccccc2)o1` [Compound I-129, (4-(5-amino-6-(5-phenyl-1,3,4-oxadiazol-2-yl)pyrazin-2-yl)-5,6-dihydropyridin-1(2H)-yl)(pyridin-3-yl)methanone], the Ki was less than 0.1 µM.

For the compound `CC(=O)N[C@@H]1CCN(c2cnc(N)c(-c3nc4ccc(C)cc4[nH]3)n2)C1` [Compound I-9, (R)-N-(1-(5-amino-6-(6-methyl-1H-benzo[d]imidazol-2-yl)pyrazin-2-yl)pyrrolidin-3-yl)ethanamide], the Ki lay in the range of 1 to 10 µM.

As for `Nc1ncc(N2CCNCC2)nc1-c1nc2ccccc2[nH]1` [Compound I-40, 3-(1H-benzo[d]imidazol-2-yl)-5-(piperazin-1-yl)pyrazin-2-amine], the Ki was 1 to 10 µM.

In the case of `CCS(=O)(=O)N1CCN(c2cnc(N)c(-c3nnc(C4CCCCC4)o3)n2)CC1` [Compound I-72, 3-(5-cyclohexyl-1,3,4-oxadiazol-2-yl)-5-(4-(ethylsulfonyl)piperazin-1-yl)pyrazin-2-amine], the Ki was 1 to 10 µM.

On to `Cc1ccc2nc(-c3nc(N4CCN(c5ccccc5)CC4)cnc3N)[nH]c2c1` [Compound I-30, 3-(6-methyl-1H-benzo[d]imidazol-2-yl)-5-(4-phenylpiperazin-1-yl)pyrazin-2-amine], for which the Ki is 0.1 to 1 µM.

`CNCc1ccc(-c2nnc(-c3nc(N4CCC5(C4)CN(S(=O)(=O)C(C)C)C5)cnc3N)o2)cc1` [Compound I-368, 5-(2-(Isopropylsulfonyl)-2,6-diazaspiro[3.4]octan-6-yl)-3-(5-(4-((methylamino)methyl)phenyl)-1,3,4-oxadiazol-2-yl)pyrazin-2-amine]: the Ki lay within 0.1 to 1 µM.

Take `Cc1ccc2nc(-c3nc(N4CCNC(=O)CC4)cnc3N)[nH]c2c1` [Compound I-65, 1-(5-amino-6-(6-methyl-1H-benzo[d]imidazol-2-yl)pyrazin-2-yl)-1,4-diazepan-5-one]: the Ki is 1 to 10 µM.

For the origin of these results see patent US8410112B2, “Compounds useful as inhibitors of ATR kinase” (Vertex Pharmaceuticals Incorporated, priority 2008, dated 2013).
